From US9012216B2, “Methods of determining efficacy of cyclodextrin therapy” (Washington University, priority 2008, dated 2015)

Test: Stability of oxysterols in NPC plasma samples processed with/without BHT at 4° C. or room temperature
Type: physicochemical, human
Procedure: Treatments include: NPC plasma samples treated with BHT (“BHT”), no BHT (“No BHT”), at 4° C. with BHT (“4 BHT”), at 4° C. without BHT (“4 No BHT”), at room temperature (20-21° C.) with BHT (“RT BHT”), and at room temperature (20-21° C.) without BHT (“RT No BHT”).
Treatments include: NPC plasma samples treated overnight with BHT (“BHT”), no BHT (“No BHT”), at 4° C. with BHT (“4 BHT”), at 4° C. without BHT (“4 No BHT”), at room temperature (20-21° C.) with BHT (“RT BHT”), and at room temperature (20-21° C.) without BHT (“RT No BHT”).
The stability of the oxysterols triol and 7-keto prepared in accordance with the methods of the present disclosure are shown in FIGS. 7A and 7B. Patient's having confirmed NPC disease were used to obtain plasma biological samples. The plasma biological samples were processed as described in Examples 1-4 except that some of the samples were not treated with butylated hydroxytoluene (BHT, a known antioxidant that prevents further oxidation of cholesterol), and either treated at room temperature or at 4° C. with and without BHT.

SMILES	Stability in plasma samples: ability to isolate and quantify
CC(C)CCC[C@@H](C)[C@H]1CC[C@H]2[C@@H]3C[C@@H](O)[C@@]4(O)C[C@@H](O)CC[C@]4(C)[C@H]3CC[C@]12C [triol, cholestane-3β,5α,6β-triol]	without adversely affecting
CC(C)CCC[C@@H](C)[C@H]1CC[C@H]2[C@@H]3C(=O)C=C4C[C@@H](O)CC[C@]4(C)[C@H]3CC[C@]12C [7-keto, 7-ketocholesterol]	without adversely affecting
